The values that follow are results of earlier work, collected in patent US10328118B2, “High purity oritavancin and method of producing same” (priority 2014, dated 2019).

Read-outs that look alike come from different tables or passages of the source.

Consider `CN[C@H](CC(C)C)C(=O)N[C@H]1C(=O)N[C@@H](CC(N)=O)C(=O)N[C@H]2C(=O)N[C@H]3C(=O)N[C@H](C(=O)N[C@H](C(=O)O)c4cc(O)cc(O)c4-c4cc3ccc4O)[C@H](O)c3ccc(c(Cl)c3)Oc3cc2cc(c3O[C@@H]2O[C@H](CO)[C@@H](O)[C@H](O)[C@H]2O[C@H]2C[C@](C)(N)[C@H](O)[C@H](C)O2)Oc2ccc(cc2Cl)[C@H]1O` [vancomycin], for which, in the series on animal models (animal models), the teratogenicity entry is listed as “non-teratogenic”. Besides, in the series with subjects (rapid infusion into subjects), the ““red man” syndrome (histamine-like response) during infusion” value is reported as “associated with the “red man” syndrome”.

Regarding teicoplanin, the teratogenicity entry with animal models (in vivo) was “non-teratogenic”. Besides, the ““red man” syndrome (histamine-like response) during infusion” value in the series on subjects (in vivo) was “not seen”.
